ChEMBL document CHEMBL1201862, “PubChem BioAssay data set” (2004)
Calls of active or inactive are those of the source.

Experiments:
[1] = target: MAP kinase-activated protein kinase 5 (Homo sapiens, UniProt Q8IW41); assay type: functional;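 note: measured as one member of a kinome panel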
[2] = target: MAP kinase-activated protein kinase 3 (Homo sapiens, UniProt Q16644); assay type: functional;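 note: value comes from a kinome-wide profiling panel in which MAPKAPK3 is one of the panel members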
[3] = target: Tyrosine-protein kinase Fer (Homo sapiens, UniProt P16591); assay type: functional;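 note: FER tested as one member of a kinome panel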
Tyrosine-protein kinase Fer, sequence (P16591 whole entry): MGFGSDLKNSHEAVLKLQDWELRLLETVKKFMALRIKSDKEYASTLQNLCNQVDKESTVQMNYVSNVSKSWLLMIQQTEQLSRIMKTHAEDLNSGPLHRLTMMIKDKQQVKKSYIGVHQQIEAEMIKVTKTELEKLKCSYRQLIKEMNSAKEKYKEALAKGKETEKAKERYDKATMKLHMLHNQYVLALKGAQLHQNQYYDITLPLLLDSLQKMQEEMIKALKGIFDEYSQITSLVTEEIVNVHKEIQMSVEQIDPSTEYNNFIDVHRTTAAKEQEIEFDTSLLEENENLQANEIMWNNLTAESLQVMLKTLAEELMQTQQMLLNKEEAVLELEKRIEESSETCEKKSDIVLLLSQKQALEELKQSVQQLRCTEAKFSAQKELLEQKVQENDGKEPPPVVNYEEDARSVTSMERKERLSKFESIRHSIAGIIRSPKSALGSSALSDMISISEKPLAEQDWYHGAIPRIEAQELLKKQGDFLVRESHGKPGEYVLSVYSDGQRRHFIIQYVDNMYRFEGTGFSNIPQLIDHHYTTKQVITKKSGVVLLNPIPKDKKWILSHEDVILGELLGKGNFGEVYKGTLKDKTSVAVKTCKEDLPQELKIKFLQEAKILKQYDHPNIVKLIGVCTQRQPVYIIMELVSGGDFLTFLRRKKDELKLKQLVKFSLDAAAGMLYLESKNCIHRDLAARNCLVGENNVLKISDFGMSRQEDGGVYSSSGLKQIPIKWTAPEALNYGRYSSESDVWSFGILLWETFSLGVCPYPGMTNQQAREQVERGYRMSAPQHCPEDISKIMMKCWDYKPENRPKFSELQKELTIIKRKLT

[4] = target: Fibroblast growth factor receptor 3 (Homo sapiens, UniProt P22607); assay type: functional
[5] = target: Vascular endothelial growth factor receptor 1 (Homo sapiens, UniProt P17948); assay type: functional;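 note: measured within a kinome-wide profiling panel, FLT1 as the panel member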
[6] = target: Tyrosine-protein kinase Lck (Homo sapiens, UniProt P06239); assay type: functional;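 note: lck was assayed as one member of a kinase panel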
[7] = target: Epidermal growth factor receptor (Homo sapiens, UniProt P00533)
[8] = target: Testis-specific serine/threonine-protein kinase 2 (Homo sapiens, UniProt Q96PF2); assay type: functional;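 note: part of the Navigating the Kinome panel, target entry STK22B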
[9] = target: Mitogen-activated protein kinase 8 (Homo sapiens, UniProt P45983); assay type: functional;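 note: value comes from one member of a kinome-wide kinase profiling panel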
[10] = target: Serine/threonine-protein kinase PAK 1 (Homo sapiens, UniProt Q13153); assay type: functional
[11] = target: Macrophage colony-stimulating factor 1 receptor (Homo sapiens, UniProt P07333); assay type: functional;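 note: value comes from the Navigating the Kinome screening panel, CSF1R member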
Macrophage colony-stimulating factor 1 receptor, sequence (P07333 whole entry): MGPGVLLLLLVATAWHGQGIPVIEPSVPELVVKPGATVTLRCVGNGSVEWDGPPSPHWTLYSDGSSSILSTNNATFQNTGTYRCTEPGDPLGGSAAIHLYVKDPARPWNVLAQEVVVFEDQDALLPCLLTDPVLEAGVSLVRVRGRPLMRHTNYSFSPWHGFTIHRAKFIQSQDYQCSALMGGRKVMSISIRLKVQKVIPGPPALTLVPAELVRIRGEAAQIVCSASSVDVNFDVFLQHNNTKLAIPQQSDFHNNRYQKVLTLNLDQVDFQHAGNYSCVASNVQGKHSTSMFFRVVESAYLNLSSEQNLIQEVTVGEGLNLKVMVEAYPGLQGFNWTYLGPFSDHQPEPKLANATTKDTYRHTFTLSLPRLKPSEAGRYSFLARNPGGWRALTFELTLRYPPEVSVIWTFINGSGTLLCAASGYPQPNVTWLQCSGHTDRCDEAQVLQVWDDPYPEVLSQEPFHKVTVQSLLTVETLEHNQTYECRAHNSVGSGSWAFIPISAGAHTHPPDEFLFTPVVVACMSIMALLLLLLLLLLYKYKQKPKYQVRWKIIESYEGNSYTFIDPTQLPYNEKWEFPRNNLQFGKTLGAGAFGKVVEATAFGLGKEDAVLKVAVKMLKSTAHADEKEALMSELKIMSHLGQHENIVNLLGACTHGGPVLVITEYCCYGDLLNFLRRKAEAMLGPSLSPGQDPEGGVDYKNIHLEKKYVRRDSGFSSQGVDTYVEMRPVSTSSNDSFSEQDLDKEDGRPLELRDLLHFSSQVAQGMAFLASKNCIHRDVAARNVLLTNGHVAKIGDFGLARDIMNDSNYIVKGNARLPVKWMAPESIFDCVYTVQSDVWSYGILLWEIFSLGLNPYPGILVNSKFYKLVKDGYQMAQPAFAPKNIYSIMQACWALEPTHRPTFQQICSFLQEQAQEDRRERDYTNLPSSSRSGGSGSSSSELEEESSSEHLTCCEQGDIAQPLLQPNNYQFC

[12] = target: 3-phosphoinositide-dependent protein kinase 1 (Homo sapiens, UniProt O15530); assay type: functional;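 note: value comes from the Navigating the Kinome panel, PDPK1 member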
3-phosphoinositide-dependent protein kinase 1, sequence (O15530 whole entry): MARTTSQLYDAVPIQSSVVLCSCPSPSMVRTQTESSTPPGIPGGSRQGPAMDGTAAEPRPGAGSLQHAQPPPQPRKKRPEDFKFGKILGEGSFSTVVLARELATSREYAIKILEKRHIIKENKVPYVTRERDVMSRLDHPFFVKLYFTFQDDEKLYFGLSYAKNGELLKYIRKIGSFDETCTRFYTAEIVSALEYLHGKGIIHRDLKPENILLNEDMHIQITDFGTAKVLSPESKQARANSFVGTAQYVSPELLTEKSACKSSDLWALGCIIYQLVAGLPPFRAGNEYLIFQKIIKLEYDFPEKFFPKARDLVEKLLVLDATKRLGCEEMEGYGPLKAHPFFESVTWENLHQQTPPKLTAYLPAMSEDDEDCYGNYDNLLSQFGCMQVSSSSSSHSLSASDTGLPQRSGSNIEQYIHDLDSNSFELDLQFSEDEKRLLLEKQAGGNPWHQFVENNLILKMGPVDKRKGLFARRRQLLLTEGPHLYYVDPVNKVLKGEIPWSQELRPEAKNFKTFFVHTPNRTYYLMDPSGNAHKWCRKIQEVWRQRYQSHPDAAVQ

[13] = target: Calcium/calmodulin-dependent protein kinase type II subunit gamma (Homo sapiens, UniProt Q13555); assay type: functional
[14] = target: Mitogen-activated protein kinase kinase kinase 20 (Homo sapiens, UniProt Q9NYL2); assay type: functional
[15] = target: Tyrosine-protein kinase FRK (Homo sapiens, UniProt P42685); assay type: functional;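 note: FRK tested as one member of a kinome panel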
[16] = target: Dual specificity protein kinase CLK4 (Homo sapiens, UniProt Q9HAZ1); assay type: functional
[17] = target: Cyclin-dependent kinase 5 (Homo sapiens, UniProt Q00535); assay type: functional;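 note: CDK5 measured as one member of a kinase profiling panel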
[18] = target: Casein kinase II subunit alpha (Homo sapiens, UniProt P68400); assay type: functional
[19] = target: Mitogen-activated protein kinase 1 (Homo sapiens, UniProt P28482); assay type: functional
[20] = target: Testis-specific serine/threonine-protein kinase 1 (Homo sapiens, UniProt Q9BXA7); assay type: functional
Testis-specific serine/threonine-protein kinase 1, sequence (Q9BXA7 whole entry): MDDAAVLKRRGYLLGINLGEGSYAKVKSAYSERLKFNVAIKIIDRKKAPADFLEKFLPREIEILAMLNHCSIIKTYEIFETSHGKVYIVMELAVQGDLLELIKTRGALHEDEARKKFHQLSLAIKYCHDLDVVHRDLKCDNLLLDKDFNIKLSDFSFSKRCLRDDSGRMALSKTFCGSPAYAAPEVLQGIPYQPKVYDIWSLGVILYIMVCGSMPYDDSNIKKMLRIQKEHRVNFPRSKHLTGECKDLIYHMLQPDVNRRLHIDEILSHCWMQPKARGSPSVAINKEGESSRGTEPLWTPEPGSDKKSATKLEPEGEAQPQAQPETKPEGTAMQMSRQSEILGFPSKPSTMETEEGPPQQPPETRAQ

[21] = target: Serine/threonine-protein kinase DCLK1 (Homo sapiens, UniProt O15075); assay type: functional;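 note: affinity for DCLK1 (listed as DCAMKL1) measured as one member of a kinome-wide kinase profiling panel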
Serine/threonine-protein kinase DCLK1, sequence (O15075 whole entry): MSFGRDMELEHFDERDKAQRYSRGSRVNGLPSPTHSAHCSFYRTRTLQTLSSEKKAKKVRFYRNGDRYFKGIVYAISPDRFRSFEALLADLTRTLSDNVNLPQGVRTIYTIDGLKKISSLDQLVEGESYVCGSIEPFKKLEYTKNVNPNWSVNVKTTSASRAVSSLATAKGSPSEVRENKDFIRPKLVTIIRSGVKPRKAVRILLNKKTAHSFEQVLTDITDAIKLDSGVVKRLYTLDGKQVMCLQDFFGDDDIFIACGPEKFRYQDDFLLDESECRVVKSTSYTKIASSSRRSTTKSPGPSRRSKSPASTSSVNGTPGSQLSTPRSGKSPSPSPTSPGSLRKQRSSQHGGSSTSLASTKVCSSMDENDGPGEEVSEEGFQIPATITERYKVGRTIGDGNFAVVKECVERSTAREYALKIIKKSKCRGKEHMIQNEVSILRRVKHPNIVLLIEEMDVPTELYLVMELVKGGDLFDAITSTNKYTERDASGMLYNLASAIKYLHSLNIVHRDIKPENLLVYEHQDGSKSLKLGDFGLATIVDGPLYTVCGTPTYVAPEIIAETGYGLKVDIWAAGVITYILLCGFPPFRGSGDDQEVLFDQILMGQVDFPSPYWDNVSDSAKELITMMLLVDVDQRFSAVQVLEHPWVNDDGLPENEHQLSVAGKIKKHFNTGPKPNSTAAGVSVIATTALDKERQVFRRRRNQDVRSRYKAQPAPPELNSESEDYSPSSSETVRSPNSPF

[22] = target: Insulin-like growth factor 1 receptor (Homo sapiens, UniProt P08069); experiment: Navigating the Kinome. Panel member name: IGF1R; assay type: functional
Insulin-like growth factor 1 receptor, sequence (P08069 31-736 limits assumed): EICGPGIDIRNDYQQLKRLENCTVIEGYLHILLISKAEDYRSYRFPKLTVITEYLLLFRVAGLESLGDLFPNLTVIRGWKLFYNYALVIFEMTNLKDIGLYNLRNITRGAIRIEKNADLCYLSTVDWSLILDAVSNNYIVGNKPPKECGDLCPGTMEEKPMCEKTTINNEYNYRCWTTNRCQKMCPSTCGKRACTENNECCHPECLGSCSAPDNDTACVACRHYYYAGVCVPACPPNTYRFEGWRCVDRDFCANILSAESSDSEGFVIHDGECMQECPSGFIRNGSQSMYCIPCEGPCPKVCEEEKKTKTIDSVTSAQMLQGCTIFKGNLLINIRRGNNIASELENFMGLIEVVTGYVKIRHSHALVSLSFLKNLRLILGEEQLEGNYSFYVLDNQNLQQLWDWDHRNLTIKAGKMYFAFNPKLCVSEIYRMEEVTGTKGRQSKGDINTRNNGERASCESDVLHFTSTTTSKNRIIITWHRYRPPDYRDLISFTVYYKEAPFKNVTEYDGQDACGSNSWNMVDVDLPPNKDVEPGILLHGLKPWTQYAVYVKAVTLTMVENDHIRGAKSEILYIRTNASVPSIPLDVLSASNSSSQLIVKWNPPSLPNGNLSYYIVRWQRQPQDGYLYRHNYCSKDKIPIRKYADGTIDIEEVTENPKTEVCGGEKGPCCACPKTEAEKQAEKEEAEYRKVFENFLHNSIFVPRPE
Insulin-like growth factor 1 receptor, sequence (P08069 741-1367 limits assumed): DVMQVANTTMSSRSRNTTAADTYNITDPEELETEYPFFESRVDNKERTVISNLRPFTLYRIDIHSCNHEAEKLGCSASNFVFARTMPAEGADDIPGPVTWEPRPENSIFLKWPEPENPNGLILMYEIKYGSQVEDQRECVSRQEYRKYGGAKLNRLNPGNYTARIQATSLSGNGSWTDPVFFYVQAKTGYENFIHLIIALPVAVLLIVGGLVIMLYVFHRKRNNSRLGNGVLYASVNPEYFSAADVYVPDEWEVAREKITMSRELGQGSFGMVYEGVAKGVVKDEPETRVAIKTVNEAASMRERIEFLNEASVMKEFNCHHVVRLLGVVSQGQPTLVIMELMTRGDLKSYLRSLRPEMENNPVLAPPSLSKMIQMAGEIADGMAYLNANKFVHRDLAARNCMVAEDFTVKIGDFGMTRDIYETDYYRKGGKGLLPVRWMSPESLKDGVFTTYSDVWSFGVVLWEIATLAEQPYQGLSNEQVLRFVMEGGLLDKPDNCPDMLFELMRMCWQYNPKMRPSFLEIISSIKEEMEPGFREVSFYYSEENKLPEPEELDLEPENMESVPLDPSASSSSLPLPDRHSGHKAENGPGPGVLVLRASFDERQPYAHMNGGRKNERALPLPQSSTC

[23] = target: Serine/threonine-protein kinase D3 (Homo sapiens, UniProt O94806); assay type: functional;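 note: determined within a kinase panel screen, with PRKCN as the panel member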
[24] = target: Fibroblast growth factor receptor 1 (Homo sapiens, UniProt P11362); assay type: functional
[25] = target: Serine/threonine-protein kinase TAO1 (Homo sapiens, UniProt Q7L7X3); assay type: functional

Structure (SMILES): NC(=O)Cn1cc(-c2cc(-c3cc4ccccc4s3)c3[nH]ncc3c2)c2nc(N)ncc21
- Ki [1]: 631 nM (active)
- Ki [2]: 10000 nM (active)
- Ki [3]: > 1580 nM (inactive)
- Ki [4]: > 2000 nM (inactive)
- Ki [5]: > 398 nM (inactive)
- Ki [6]: > 2510 nM (inactive)
- Ki [7]: > 2000 nM (inactive)
- Ki [8]: > 1580 nM (inactive)
- Ki [9]: 126 nM (active)
- Ki [10]: 3980 nM (active)
- Ki [11]: > 2510 nM (inactive)
- Ki [12]: 7.94 nM (active)
- Ki [13]: 6310 nM (active)
- Ki [14]: > 7940 nM (inactive)
- Ki [15]: > 2510 nM (inactive)
- Ki [16]: 25.1 nM (active)
- Ki [17]: 794 nM (active)
- Ki [18]: > 6310 nM (inactive)
- Ki [19]: > 7940 nM (inactive)
- Ki [20]: > 1580 nM (inactive)
- Ki [21]: > 10000 nM (inactive)
- Ki [22]: > 2000 nM (inactive)
- Ki [23]: 1000 nM (active)
- Ki [24]: > 5010 nM (inactive)
- Ki [25]: 2510 nM (active)
